Source: ChEMBL document CHEMBL3407427, “Discovery of efficacious Pseudomonas aeruginosa-targeted siderophore-conjugated monocarbams by application of a semi-mechanistic pharmacokinetic/pharmacodynamic model” (J Med Chem, 2015)
Converted amounts (≈) assume the structure as drawn.

Key:
[1] = Percentage unbound in human plasma at 10 uM after 16 hrs by LC-MS/MS analysis
[2] = system: Pseudomonas aeruginosa; assay: Inhibition of Pseudomonas aeruginosa PBP3 acylation activity by BOCILLIN FL-based assay
[3] = Half life in PBS buffer in pH 7.4 by UPLC analysis; type: ADME
[4] = system: Pseudomonas aeruginosa; assay: Antimicrobial activity against MexABCDXY-deficient Pseudomonas aeruginosa PAO1 ARC546 by broth microdilution method; type: functional
[5] = system: Pseudomonas aeruginosa; assay: Antimicrobial activity against Pseudomonas aeruginosa PAO1 ARC545 by broth microdilution method; type: functional
[6] = system: Escherichia coli; assay: Antimicrobial activity against Escherichia coli by broth microdilution method; type: functional
[7] = system: Pseudomonas aeruginosa; assay: Antimicrobial activity against Pseudomonas aeruginosa by broth microdilution method; type: functional
[8] = Volume of distribution at steady state in Wistar Han rat at 1 mg/kg, iv infusion; type: ADME, organism-based; parameters: dose 1 mg/kg, route intravenous; details: in vivo, read-out: Vdss
[9] = Clearance in Wistar Han rat at 1 mg/kg, iv infusion; type: ADME, organism-based; parameters: dose 1 mg/kg, route intravenous; details: in vivo
[10] = system: Acinetobacter baumannii; assay: Antimicrobial activity against Acinetobacter baumannii by broth microdilution method; type: functional
[11] = system: Klebsiella pneumoniae; assay: Antimicrobial activity against Klebsiella pneumoniae by broth microdilution method; type: functional
[12] = Plasma protein binding in Wistar Han rat as percentage unbound
[13] = Half life in Wistar Han rat at 1 mg/kg, iv infusion; type: ADME, organism-based; parameters: dose 1 mg/kg, route intravenous; details: in vivo

Row | Compound | fraction unbound at 16 h, 10 µM [1] | Kinact [2] | half-life [3] [h] | MIC [4] [µg/mL] | MIC [5] [µg/mL] | MIC90 [6] [µg/mL] | MIC90 [7] [µg/mL] | Vd [8] [L/kg] | clearance [9] [mL/min/kg] | MIC90 [10] [µg/mL] | MIC90 [11] [µg/mL] | fraction unbound [12] | half-life [13] [h]
1 | C[C@H]1[C@H](NC(=O)/C(=N\OC(C)(C)C(=O)O)c2csc(N)n2)C(=O)N1C(=O)NS(=O)(=O)N1C[C@H](NC(=O)c2cc(=O)c(O)c[nH]2)CC1=O | 0.25 | 3.5 ×10⁵ /M/s | > 150 | < 0.06 | 0.5 (≈ 0.717 µM) | – | – | – | – | – | – | – | –
2 | C[C@H]1[C@H](NC(=O)/C(=N\OC(C)(C)C(=O)O)c2csc(N)n2)C(=O)N1C(=O)NS(=O)(=O)N1C[C@@H](NC(=O)NCc2cc(=O)c(O)cn2O)CC1=O | 0.26 | 5.9 ×10⁴ /M/s | 87 | < 0.06 | 0.5 (≈ 0.673 µM) | 16 (≈ 21.5 µM) | 2 (≈ 2.69 µM) | 0.29 | 9 | > 128 | 32 (≈ 43.1 µM) | 0.29 | 0.49
3 | C[C@H]1[C@H](NC(=O)/C(=N\OCC(=O)O)c2csc(N)n2)C(=O)N1C(=O)NS(=O)(=O)N1C[C@@H](NC(=O)NCc2cc(=O)c(O)cn2O)CC1=O | 0.26 | 3.4 ×10³ /M/s | 87 | 0.13 (≈ 0.182 µM) | 4 (≈ 5.6 µM) | – | – | – | – | – | – | – | –
4 | C[C@H]1[C@H](NC(=O)/C(=N\OC(C)(C)C(=O)O)c2csc(N)n2)C(=O)N1C(=O)NS(=O)(=O)N1C[C@@H](n2cc(-c3cc(=O)c(O)c[nH]3)nn2)CC1=O | 0.31 | 2.3 ×10⁵ /M/s | 117 | < 0.06 | 4 (≈ 5.54 µM) | – | – | – | – | – | – | – | –
5 | C[C@H]1[C@H](NC(=O)/C(=N\OC(C)(C)C(=O)O)c2csc(N)n2)C(=O)N1C(=O)NS(=O)(=O)n1nc(-c2cc(=O)c(O)c[nH]2)n(C[C@@H](O)CO)c1=O | 0.04 | 7.2 ×10⁴ /M/s | 138 | < 0.06 | 0.25 (≈ 0.343 µM) | 16 (≈ 22 µM) | 0.25 (≈ 0.343 µM) | 0.28 | 9 | > 128 | 8 (≈ 11 µM) | 0.04 | 0.39
6 | C[C@H]1[C@H](NC(=O)/C(=N\OC(C)(C)C(=O)O)c2csc(N)n2)C(=O)N1C(=O)NS(=O)(=O)N1C[C@@H](N(C)C(=O)NCc2cc(=O)c(O)cn2O)CC1=O | 0.27 | 3.1 ×10⁴ /M/s | 19 | 0.25 (≈ 0.33 µM) | 0.5 (≈ 0.661 µM) | – | – | – | – | – | – | – | –
7 | C[C@H]1[C@H](NC(=O)/C(=N\OC(C)(C)C(=O)O)c2csc(N)n2)C(=O)N1C(=O)NS(=O)(=O)N1C[C@@H](NC(=O)[C@H](CC(=O)O)NC(=O)c2cc(=O)c(O)cn2O)CC1=O | 0.43 | 2 ×10⁵ /M/s | > 150 | < 0.06 | 0.25 (≈ 0.302 µM) | – | – | – | – | – | – | – | –
8 | C[C@H]1[C@H](NC(=O)/C(=N\OC(C)(C)C(=O)O)c2csc(N)n2)C(=O)N1C(=O)NS(=O)(=O)N1CCN(C(=O)c2cc(=O)c(O)c[nH]2)N(C)C1=O | 0.14 | 2.6 ×10⁴ /M/s | 38 | < 0.06 | 1 (≈ 1.4 µM) | 64 (≈ 89.8 µM) | 2 (≈ 2.81 µM) | 0.42 | 12 | > 128 | 64 (≈ 89.8 µM) | 0.15 | 0.37
9 | C[C@H]1[C@H](NC(=O)/C(=N\OC(C)(C)C(=O)O)c2csc(N)n2)C(=O)N1C(=O)NS(=O)(=O)N1C[C@@H](NC(=O)CNC(=O)c2cc(=O)c(O)cn2O)CC1=O | 0.45 | 1 ×10⁵ /M/s | > 150 | < 0.06 | 0.5 (≈ 0.649 µM) | – | – | – | – | – | – | – | –
10 | C[C@H]1[C@H](NC(=O)/C(=N\OC(C)(C)C(=O)O)c2csc(N)n2)C(=O)N1C(=O)NS(=O)(=O)Nc1cc(=O)c(O)c[nH]1 | 0.23 | 1.3 ×10⁴ /M/s | 103 | 1 (≈ 1.7 µM) | 16 (≈ 27.3 µM) | – | – | – | – | – | – | – | –
11 | C[C@H]1[C@H](NC(=O)/C(=N\OC(C)(C)C(=O)O)c2csc(N)n2)C(=O)N1C(=O)NS(=O)(=O)N1CC[C@H](NC(=O)c2cc(=O)c(O)c[nH]2)C1 | 0.33 | 4.6 ×10⁴ /M/s | > 150 | < 0.06 | 1 (≈ 1.46 µM) | – | – | – | – | – | – | – | –
12 | C[C@H]1[C@H](NC(=O)/C(=N\OC(C)(C)C(=O)O)c2csc(N)n2)C(=O)N1C(=O)NS(=O)(=O)NCc1cc(=O)c(O)c[nH]1 | 0.61 | 2.5 ×10⁴ /M/s | > 150 | < 0.06 | 8 (≈ 13.3 µM) | – | – | – | – | – | – | – | –
13 | C[C@H]1[C@H](NC(=O)/C(=N\OC(C)(C)C(=O)O)c2csc(N)n2)C(=O)N1C(=O)NS(=O)(=O)N1C[C@@H](NC(=O)[C@H](CN)NC(=O)c2cc(=O)c(O)c[nH]2)CC1=O | 0.18 | 9.4 ×10³ /M/s | 51 | 0.5 (≈ 0.638 µM) | 4 (≈ 5.1 µM) | – | – | – | – | – | – | – | –
14 | C[C@H]1[C@H](NC(=O)/C(=N\OC(C)(C)C(=O)O)c2csc(N)n2)C(=O)N1C(=O)NS(=O)(=O)N1C[C@@H](NC(=O)N(C)Cc2cc(=O)c(O)cn2O)CC1=O | 0.26 | 1.9 ×10⁴ /M/s | > 150 | 0.25 (≈ 0.33 µM) | 1 (≈ 1.32 µM) | – | – | – | – | – | – | – | –
15 | C[C@H]1[C@H](NC(=O)/C(=N\OC(C)(C)C(=O)O)c2csc(N)n2)C(=O)N1C(=O)NS(=O)(=O)N1CCN(C(=O)c2cc(=O)c(O)c[nH]2)CC1 | 0.26 | 2.4 ×10⁴ /M/s | > 150 | < 0.06 | 8 (≈ 11.7 µM) | – | – | – | – | – | – | – | –
16 | C[C@H]1[C@H](NC(=O)/C(=N\OC(C)(C)C(=O)O)c2csc(N)n2)C(=O)N1C(=O)NS(=O)(=O)N1C[C@@H](NC(=O)[C@H](CCS(C)(=O)=O)NC(=O)c2cc(=O)c(O)c[nH]2)CC1=O | 0.21 | 1.8 ×10⁴ /M/s | > 150 | 0.25 (≈ 0.29 µM) | 4 (≈ 4.65 µM) | – | – | – | – | – | – | – | –
17 | C[C@H]1[C@H](NC(=O)/C(=N\OC(C)(C)C(=O)O)c2csc(N)n2)C(=O)N1S(=O)(=O)O [AZTREONAM] | – | – | – | 0.25 (≈ 0.574 µM) | 4 (≈ 9.19 µM) | > 512 | 1020 (≈ 2350 µM) | – | – | > 512 | > 512 | – | –
18 | C[C@H]1[C@H](NC(=O)/C(=N\OC(C)(C)C(=O)O)c2csc(N)n2)C(=O)N1C(=O)NS(=O)(=O)N1C[C@@H](NC(=O)CNC(=O)c2cc(=O)c(O)c[nH]2)CC1=O | 0.38 | 2.4 ×10⁴ /M/s | > 150 | 0.25 (≈ 0.331 µM) | 2 (≈ 2.65 µM) | – | – | – | – | – | – | – | –
19 | C[C@H]1[C@H](NC(=O)/C(=N\OC(C)(C)C(=O)O)c2csc(N)n2)C(=O)N1C(=O)NS(=O)(=O)N1C[C@@H](NC(=O)c2cc(=O)c(O)cn2O)CC1=O | 0.08 | 3 ×10⁵ /M/s | > 150 | < 0.06 | 0.5 (≈ 0.701 µM) | – | – | – | – | – | – | – | –
20 | CC(C)(O/N=C(\C(=O)NC1CN(C(=O)NS(=O)(=O)N2CCN(NC(=O)c3cc(=O)c(O)c[nH]3)C2=O)C1=O)c1csc(N)n1)C(=O)O (configuration not stated) [PIRAZMONAM] | 0.29 | 1.4 ×10⁵ /M/s | 41 | 0.06 (≈ 0.0876 µM) | 0.25 (≈ 0.365 µM) | – | – | – | – | – | – | – | –
21 | C[C@H]1[C@H](NC(=O)/C(=N\OC(C)(C)C(=O)O)c2csc(N)n2)C(=O)N1C(=O)NS(=O)(=O)N1N=C(c2cc(=O)c(O)c[nH]2)NCC1=O | – | 3.8 ×10³ /M/s | 40 | 2 (≈ 2.99 µM) | 16 (≈ 23.9 µM) | – | – | – | – | – | – | – | –
22 | C[C@H]1[C@H](NC(=O)/C(=N\OC(C)(C)C(=O)O)c2csc(N)n2)C(=O)N1C(=O)NS(=O)(=O)N1C[C@@H](NCc2cc(=O)c(O)c[nH]2)CC1=O | 0.4 | 5.7 ×10⁴ /M/s | 48 | 0.5 (≈ 0.731 µM) | 8 (≈ 11.7 µM) | – | – | – | – | – | – | – | –
23 | C[C@H]1[C@H](NC(=O)/C(=N\OC(C)(C)C(=O)O)c2csc(N)n2)C(=O)N1C(=O)NS(=O)(=O)N1C[C@@H](NC(=O)[C@H](CC(=O)O)NC(=O)c2cc(=O)c(O)c[nH]2)CC1=O | 0.14 | 3.8 ×10⁴ /M/s | > 150 | 0.5 (≈ 0.615 µM) | 1 (≈ 1.23 µM) | – | – | – | – | – | – | – | –
24 | C[C@H]1[C@H](NC(=O)/C(=N\OC(C)(C)C(=O)O)c2csc(N)n2)C(=O)N1C(=O)NS(=O)(=O)N1C[C@@H](NC(=O)NCc2cc(=O)c(O)c[nH]2)CC1=O | 0.26 | 2.4 ×10⁴ /M/s | 30 | 1 (≈ 1.38 µM) | 16 (≈ 22 µM) | – | – | – | – | – | – | – | –
25 | C[C@H]1[C@H](NC(=O)/C(=N\OC(C)(C)C(=O)O)c2csc(N)n2)C(=O)N1C(=O)NS(=O)(=O)N1C[C@@H](NC(=O)[C@@H]2CCCN2C(=O)c2cc(=O)c(O)c[nH]2)CC1=O | 0.28 | 1.4 ×10⁴ /M/s | 114 | 0.5 (≈ 0.629 µM) | 8 (≈ 10.1 µM) | – | – | – | – | – | – | – | –
26 | C[C@H]1[C@H](NC(=O)/C(=N\OC(C)(C)C(=O)O)c2csc(N)n2)C(=O)N1C(=O)NS(=O)(=O)N1C[C@@H](NC(=O)c2cc(=O)c(O)c[nH]2)CC1=O | 0.24 | 1.5 ×10⁵ /M/s | > 150 | < 0.06 | 1 (≈ 1.43 µM) | 32 (≈ 45.9 µM) | 2 (≈ 2.87 µM) | 0.44 | 16 | > 64 | 32 (≈ 45.9 µM) | 0.06 | 0.34
27 | CC(C)(O/N=C(\C(=O)N[C@@H]1C(=O)N(C(=O)NS(=O)(=O)N2C[C@@H](NC(=O)NCc3cc(=O)c(O)cn3O)CC2=O)C1(C)C)c1csc(N)n1)C(=O)O | 0.23 | 8.1 ×10² /M/s | > 150 | 1 (≈ 1.32 µM) | 8 (≈ 10.6 µM) | – | – | – | – | – | – | – | –
